Experimental data published in patent publication US5169858A, “Anti-tumor compositions containing the reactive product of benzaldehyde or salicylaldehyde with penicillamine and method of use thereof” (priority 1986, dated 1992).

Legend:
[1] = Terol et al publication; cited from earlier work
[2] = Terol et al publication; species and route not given; cited from earlier work
mouse melanoma cells [3] = assay: Subcutaneous mouse melanoma, treatment from palpable tumor, 33 mg/kg orally every day; format: in vivo, black mice; conditions: 33 mg/kg every day by oral intubation
Experimental: (§1) Thirty-seven black mice were divided into two groups. Group I had 18 mice and was the control group. Group II had 19 mice and was the treated group. Each mouse was innoculated with 100,000 mouse melanoma cells subcutaneously. After the tumor was palpable (after about a week) the control group received saline orally. The treated group got 33 mg/kg of 5,5-dimethyl-2-phenyl-4-thiazolidine carboxylic acid every day by oral intubation. All of the control group died within an average of twenty-three days. The treated group started dying at day 50. The last mouse of the treated group died on day 70. The treated group died from day 50 on at the rate of about one mouse per day. […] Two mice in the treated group survived cured. The tumor disappeared in the two cured mice.

[4] = Water solubility of free compound and copper chelates; format: physicochemical; conditions: stated in the description, no test described
mouse melanoma cells [5] = format: in vivo, black mice
Experimental: as §1
The same experiment was repeated with 20 control mice and 20 mice in the treated group, employing doses of 5,5-dimethyl-2-phenyl-4-thiazolidine carboxylic acid at 100 mg/kg. The treatment began about one day after innoculation. The control group died at the same time as the control group in the previous experiment. […] Five of the treated mice died between the 7th and 9th day. The reasons for these deaths are unclear, but it is presumed that they were asphyxiated by intubation.

tumor = conditions: literature / other patent (Kochi et al.; U.S. Pat. No. 4,762,705); cited from earlier work

Compound	effect as a radio-protectant agent [1]	LD50 [2] [mg/kg]	tumor development compared with control group (mouse melanoma cells [3])	day of death of last mouse of treated group (mouse melanoma cells [3]; 19 treated mice) [days]	mice in treated group that survived cured (tumor disappeared) (mouse melanoma cells [3]; 19 treated mice)	day on which treated group started dying (mouse melanoma cells [3]; 19 treated mice, control died within an average of twenty-three days) [days]	water solubility [4]	palpable tumors developed in treated group (mouse melanoma cells [5]; 100 mg/kg, treatment began about one day after inoculation, 20 treated mice)	day of death of the five treated mice (mouse melanoma cells [5]; mouse, in vivo) [days]	treated mice that died between the 7th and 9th day (mouse melanoma cells [5]; mouse, in vivo)	anti-tumor activity (tumor)
CC1(C)SC(c2ccccc2)NC1C(=O)O (stereo not drawn) [5,5-dimethyl-2-phenyl-4-thiazolidine carboxylic acid]	absolutely no effect whatsoever	1200	developed slower than the tumors in the control group	70	Two	50	water-soluble	no palpable tumors	7 to 9	Five	
O=Cc1ccccc1 [benzaldehyde]											has been shown to have anti-tumor activity
CC(C)(S)[C@@H](N)C(=O)O [penicillamine, dimethylcysteine]											has anti-tumor activity
